Reference: patent publication US11917959B2, “Multi-ear system to enhance monocot plant yield” (Monsanto Technology LLC, priority 2015, dated 2024)

System: maize inbred lines Germplasm A and LH244
Assay: Co-dominant ear induction in diploid maize inbreds (Example 5)
Type: in vivo
Settings: for Ave. Ears Per Plant / Ave. Total Kernels Per Plant: Treated
Description: Seeds of maize inbred lines Germplasm A and LH244 were planted in soil, germinated, and then transplanted to 10-inch pots after approximately one week, one seedling per pot. The plants were subjected to a co-dominant ear induction treatment at the V8 stage comprising drenching the soil surrounding the roots of each plant with 50 mL of a 2.5% PBZ solution (v/v; 0.4% of active ingredient). The plants were tended in a greenhouse until sexual maturity, then they were self-pollinated. When seed set had completed, the number of co-dominant ears, and the total number of kernels, produced by each plant were counted. Control plants for each germplasm were processed in the same way as the treated groups, except that the control plants were not subjected to the co-dominant ear induction treatment.

[1] = Germplasm A, 50 mL 2.5% PBZ at V8

CC(C)(C)[C@@H](O)[C@@H](Cc1ccc(Cl)cc1)n1cncn1 (relative stereo) [PBZ, (±)-(R*, R*)-beta-((4-chlorophenyl)methyl)-alpha-(1,1,-dimethylethyl)-1H-1,2,4,-triazole-1-ethanol]
Ave. Ears Per Plant [1]: 8
Ave. Total Kernels Per Plant [1]: 1677
Ave. Ears Per Plant (LH244, 50 mL 2.5% PBZ at V8): 5.1
Ave. Total Kernels Per Plant (LH244, 50 mL 2.5% PBZ at V8): 1126
average total kernels per plant and average ears per plant, treated vs control (both germplasms): more than doubling
